# Test results from ChEMBL document CHEMBL1201862, “PubChem BioAssay data set” (2004).
# Active and inactive are the calls of the source.
# Experiments:
# Aminopeptidase N = target: T1, Aminopeptidase N (Plasmodium falciparum FcB1/Columbia, UniProt O96935); assay: malaria alanyl aminopeptidase activity blockers – biochemical, fluorogenic H-Leu-NHMec substrate, 1536-well (AID 1445); set-up: species or system Plasmodium falciparum 3D7, 3D7
# T1 sequence (O96935 whole entry): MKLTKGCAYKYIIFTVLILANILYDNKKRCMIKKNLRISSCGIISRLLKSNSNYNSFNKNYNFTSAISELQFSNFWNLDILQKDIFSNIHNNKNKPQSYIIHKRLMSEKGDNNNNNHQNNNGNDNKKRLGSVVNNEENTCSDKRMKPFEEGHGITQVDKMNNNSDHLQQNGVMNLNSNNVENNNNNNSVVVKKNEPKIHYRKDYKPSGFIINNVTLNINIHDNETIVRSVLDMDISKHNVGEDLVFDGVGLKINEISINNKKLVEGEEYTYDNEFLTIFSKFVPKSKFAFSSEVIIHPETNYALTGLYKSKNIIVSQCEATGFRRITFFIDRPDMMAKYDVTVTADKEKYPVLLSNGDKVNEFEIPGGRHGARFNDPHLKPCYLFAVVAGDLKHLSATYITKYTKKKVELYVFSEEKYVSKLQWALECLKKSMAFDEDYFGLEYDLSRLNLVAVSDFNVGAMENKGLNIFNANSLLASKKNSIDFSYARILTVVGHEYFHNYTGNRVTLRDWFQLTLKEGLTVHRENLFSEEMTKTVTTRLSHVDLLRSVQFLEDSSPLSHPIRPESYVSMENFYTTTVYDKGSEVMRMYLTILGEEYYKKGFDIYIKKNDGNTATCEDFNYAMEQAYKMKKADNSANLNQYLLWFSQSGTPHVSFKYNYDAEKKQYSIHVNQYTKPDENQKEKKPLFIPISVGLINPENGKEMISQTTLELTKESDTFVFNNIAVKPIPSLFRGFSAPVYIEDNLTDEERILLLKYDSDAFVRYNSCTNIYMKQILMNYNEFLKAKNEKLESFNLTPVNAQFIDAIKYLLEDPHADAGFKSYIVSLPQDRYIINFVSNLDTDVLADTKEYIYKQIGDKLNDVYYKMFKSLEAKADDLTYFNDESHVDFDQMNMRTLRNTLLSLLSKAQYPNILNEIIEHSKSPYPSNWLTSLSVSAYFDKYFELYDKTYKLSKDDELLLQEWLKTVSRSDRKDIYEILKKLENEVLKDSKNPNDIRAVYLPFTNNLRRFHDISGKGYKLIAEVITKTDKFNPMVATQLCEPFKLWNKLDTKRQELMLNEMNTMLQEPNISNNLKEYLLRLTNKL
# [1] = test system: Streptococcus sp. 'group A'; assay: Streptococcus pyogenes SK(-)GAS viability under kanamycin – luminescence, BacTiterGlo, confirmation, counter-screen for streptokinase expression inhibitor project, dose response (AID 1900); format: functional, organism-based
# Streptokinase A = target: T2, Streptokinase A (Streptococcus pyogenes serotype M1, UniProt P10520); assay: viability-normalized secreted streptokinase activity reduction – plasminogen activation absorbance, OD405, dose response (AID 1914); format: functional, Streptococcus pyogenes M1 GAS;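 further: secreted streptokinase activity via plasminogen activation per viability signal from cell pellet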
# T2 sequence (P10520 whole entry): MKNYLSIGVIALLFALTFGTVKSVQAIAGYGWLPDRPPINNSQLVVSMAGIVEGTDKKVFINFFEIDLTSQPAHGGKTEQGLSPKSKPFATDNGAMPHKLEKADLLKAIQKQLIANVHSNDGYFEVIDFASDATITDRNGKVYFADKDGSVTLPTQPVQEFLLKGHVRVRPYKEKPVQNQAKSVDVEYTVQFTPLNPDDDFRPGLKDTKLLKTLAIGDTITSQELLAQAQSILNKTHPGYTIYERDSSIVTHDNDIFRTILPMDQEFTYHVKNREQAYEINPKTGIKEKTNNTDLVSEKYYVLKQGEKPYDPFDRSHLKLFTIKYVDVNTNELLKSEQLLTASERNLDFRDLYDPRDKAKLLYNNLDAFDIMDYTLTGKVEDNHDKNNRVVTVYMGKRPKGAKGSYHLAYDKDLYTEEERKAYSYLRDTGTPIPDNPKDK
# Streptococcus = assay: GAS UMAA2166 growth inhibition – luminescence, BacTiterGlo, counter-screen for streptokinase expression inhibitor project, dose response (AID 1915); format: functional, organism-based;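 further: potency for reduction of bacterial viability or growth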
# [2] = target: T3, High affinity choline transporter 1 (Homo sapiens, UniProt Q9GZV3); assay: human choline transporter blockers, potency – cell-based, 5-point CRC, membrane potential dye, dose response (AID 504840); format: functional
# T3 sequence (Q9GZV3 whole entry): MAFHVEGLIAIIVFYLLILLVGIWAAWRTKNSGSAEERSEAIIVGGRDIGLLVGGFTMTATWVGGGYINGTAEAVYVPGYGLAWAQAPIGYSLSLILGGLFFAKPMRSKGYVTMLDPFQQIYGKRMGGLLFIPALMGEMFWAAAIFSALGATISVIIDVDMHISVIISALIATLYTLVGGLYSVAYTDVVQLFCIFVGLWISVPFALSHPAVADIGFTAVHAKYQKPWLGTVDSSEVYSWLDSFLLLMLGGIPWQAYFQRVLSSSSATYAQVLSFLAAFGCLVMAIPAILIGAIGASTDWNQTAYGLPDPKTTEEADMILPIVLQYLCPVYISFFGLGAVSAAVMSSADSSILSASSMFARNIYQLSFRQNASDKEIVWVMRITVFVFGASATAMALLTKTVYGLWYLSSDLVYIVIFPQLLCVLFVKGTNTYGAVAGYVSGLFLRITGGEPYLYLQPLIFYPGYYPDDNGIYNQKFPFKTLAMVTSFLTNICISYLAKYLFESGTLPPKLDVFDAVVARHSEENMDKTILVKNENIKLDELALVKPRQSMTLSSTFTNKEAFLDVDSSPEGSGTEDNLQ
# [3] = target: T3, High affinity choline transporter 1; assay: human choline transporter blockers, potency – cell-based, 10-point CRC, membrane potential dye, dose response (AID 588401); format: functional;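 further: membrane potential dye fluorescence of choline-evoked depolarization via CHT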
# Genome polyprotein = Genome polyprotein (dengue virus type 2, UniProt P29990); assay: flavivirus cap methylation enzyme inhibition – biochemical, confirmation dose response, primary screen (AID 588689); format: functional
# [4] = target: T4, Heat shock factor protein 1 (Mus musculus, UniProt P38532); assay: decrease of HSF1-responsive luciferase luminescence – cell-based, NIH3T3, dose retest, confirmation (AID 2382); format: functional;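 further: NIH3T3 fibroblasts with HSF1-driven luciferase reporter stressed by proteasome inhibitor MG132; luminescence from HSF1-driven luciferase expression after 8 hours of MG132 stress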
# T4 sequence (P38532 whole entry): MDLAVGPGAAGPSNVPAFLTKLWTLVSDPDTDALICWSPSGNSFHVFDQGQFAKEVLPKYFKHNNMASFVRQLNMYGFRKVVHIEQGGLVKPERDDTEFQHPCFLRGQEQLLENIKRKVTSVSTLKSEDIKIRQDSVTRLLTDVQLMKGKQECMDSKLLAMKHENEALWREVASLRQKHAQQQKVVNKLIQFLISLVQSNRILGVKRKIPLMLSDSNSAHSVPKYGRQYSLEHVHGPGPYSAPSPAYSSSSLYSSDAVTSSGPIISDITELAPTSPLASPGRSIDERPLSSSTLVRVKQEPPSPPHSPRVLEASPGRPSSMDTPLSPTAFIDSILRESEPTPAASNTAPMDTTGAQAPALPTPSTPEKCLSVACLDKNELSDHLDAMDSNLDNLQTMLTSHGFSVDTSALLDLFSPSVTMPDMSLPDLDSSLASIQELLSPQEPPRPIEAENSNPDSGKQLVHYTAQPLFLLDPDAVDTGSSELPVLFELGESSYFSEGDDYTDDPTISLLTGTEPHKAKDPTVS
# [5] = target: T5, Sentrin-specific protease 8 (Homo sapiens, UniProt Q96LD8); format: functional
# T5 sequence (Q96LD8 whole entry): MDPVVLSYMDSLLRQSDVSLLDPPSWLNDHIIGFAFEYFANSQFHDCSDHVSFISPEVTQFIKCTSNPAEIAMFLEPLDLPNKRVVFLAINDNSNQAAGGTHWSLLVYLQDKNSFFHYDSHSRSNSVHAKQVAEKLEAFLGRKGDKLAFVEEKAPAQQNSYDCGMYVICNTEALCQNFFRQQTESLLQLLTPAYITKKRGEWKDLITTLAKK
# [6] = target: T5, Sentrin-specific protease 8; format: functional; remark: listed apart in the source
# Caspase-6 = target: T6, Caspase-6 (Homo sapiens, UniProt P55212); assay: inhibition of CASP6 peptide cleavage – biochemical, VEID-R110 fluorescence, cherry-pick, dose response (AID 720632)
# T6 sequence (P55212 whole entry): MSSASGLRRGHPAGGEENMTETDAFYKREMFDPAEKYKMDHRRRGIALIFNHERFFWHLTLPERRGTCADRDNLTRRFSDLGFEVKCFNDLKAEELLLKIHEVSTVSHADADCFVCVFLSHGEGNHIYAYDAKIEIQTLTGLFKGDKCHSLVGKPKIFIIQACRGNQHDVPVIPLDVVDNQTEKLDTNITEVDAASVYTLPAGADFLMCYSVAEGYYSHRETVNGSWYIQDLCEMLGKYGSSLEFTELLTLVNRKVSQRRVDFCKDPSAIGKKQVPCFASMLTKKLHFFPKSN
# [7] = bead-based luminescence quenchers, dual-tagged ARNT – biochemical, AlphaScreen, cherry-pick, artefact control for ARNT-TACC3 interaction inhibitor project, dose response (AID 651705); format: functional;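 further: AlphaScreen bead proximity signal that flags compounds interfering with the detection technology; potency reflects signal decrease which marks the compound as an assay artifact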
# [8] = target: Tyrosine-protein phosphatase non-receptor type 11 (Homo sapiens, UniProt Q06124); assay: PTPN11 enzyme inhibitors – biochemical, selectivity assay for STEP inhibitor project, dose response (AID 602367); format: functional; conditions: read-out: IC50_Mean
# [9] = target: Tyrosine-protein phosphatase non-receptor type 5 (Homo sapiens, UniProt P54829); assay: PTPN5 enzyme inhibition – biochemical, fluorescence intensity, uHTS hits, confirmation (AID 602372); format: functional; conditions: read-out: IC50_Mean
# [10] = target: Dual specificity protein phosphatase 3 (Homo sapiens, UniProt P51452); assay: VHR phosphatase inhibition, dose response, selectivity assay for STEP inhibitor project, biochemical (AID 602374); format: functional; conditions: read-out: IC50_Mean
# [11] = target: T7, Beta-2 adrenergic receptor (Homo sapiens, UniProt P07550); assay: Dose response for HTS for Beta-2AR agonists via FAP method from Powderset1.; format: functional
# [12] = target: T7, Beta-2 adrenergic receptor; assay: ADRB2 activation measured by internalization – cell-based, FAP fluorogen, flow cytometry, cherry pick 1, dose response (AID 588763); format: functional
# [13] = target: Arf-GAP with SH3 domain, ANK repeat and PH domain-containing protein 1 (Homo sapiens, UniProt Q9ULH1); format: functional;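 further: biochemical fluorescence polarization dose–response screen measuring inhibition of ASAP1; ASAP1 GAP domain stimulating GTP hydrolysis by truncated human ARF1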
# Vero = assay: mammalian cell viability reduction – secondary assay, cytotoxicity control for West Nile virus antiviral project, dose response (AID 1650); format: functional; conditions: Chlorocebus sabaeus
# [14] = target: SWI/SNF-related matrix-associated actin-dependent regulator of chromatin subfamily A member 2 (Homo sapiens, UniProt P51531); assay: Luminescence-based cell-based high throughput dose response assay to identify activators of the function of SWI/SNF related, matrix associated, actin dependent regulator of chromatin, subfamily a, member 2 (SMARCA2, BRM).; format: functional
# [15] = Counterscreen for activators of the function of SWI/SNF related, matrix associated, actin dependent regulator of chromatin, subfamily a, member 2 (SMARCA2, BRM): Luminescence-based cell-based high throughput dose response assay to identify non-selective compounds using the VP16 reporter assay.; format: functional
# [16] = target: T8, DNA repair protein RAD52 homolog (Homo sapiens, UniProt P43351); format: functional, biochemical
# T8 sequence (P43351 whole entry): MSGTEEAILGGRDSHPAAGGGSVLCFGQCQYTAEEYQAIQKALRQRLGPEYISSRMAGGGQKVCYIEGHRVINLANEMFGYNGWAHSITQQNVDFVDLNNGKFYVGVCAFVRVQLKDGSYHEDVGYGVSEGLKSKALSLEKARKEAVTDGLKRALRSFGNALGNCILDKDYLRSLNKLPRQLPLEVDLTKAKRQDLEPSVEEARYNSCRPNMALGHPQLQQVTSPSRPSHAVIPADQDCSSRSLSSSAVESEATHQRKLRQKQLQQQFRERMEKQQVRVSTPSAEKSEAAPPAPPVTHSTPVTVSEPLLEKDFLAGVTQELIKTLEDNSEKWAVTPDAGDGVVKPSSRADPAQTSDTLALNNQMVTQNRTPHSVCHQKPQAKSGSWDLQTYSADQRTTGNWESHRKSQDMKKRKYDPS
# Melanocortin receptor 4 = Melanocortin receptor 4 (Homo sapiens, UniProt P32245); format: functional, cell-based;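 further: Cell-based assay with luminescence read-out, confirmatory dose-response testing for agonist activity of biased ligands at MC4R; human U2OS cells with tagged receptor and beta-arrestin; potency of agonists that increase receptor coupling to beta-arrestin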
# Melanocortin receptor 4, sequence (P32245 whole entry): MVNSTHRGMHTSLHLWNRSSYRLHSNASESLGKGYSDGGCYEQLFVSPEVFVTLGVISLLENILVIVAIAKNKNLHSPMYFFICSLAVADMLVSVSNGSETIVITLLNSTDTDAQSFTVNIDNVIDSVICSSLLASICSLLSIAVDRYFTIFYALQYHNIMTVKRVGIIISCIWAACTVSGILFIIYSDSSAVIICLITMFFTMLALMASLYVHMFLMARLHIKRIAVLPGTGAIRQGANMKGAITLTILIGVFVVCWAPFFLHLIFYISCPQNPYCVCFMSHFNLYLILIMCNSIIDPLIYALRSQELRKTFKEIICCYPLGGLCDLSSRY
# T7 sequence (P07550 whole entry): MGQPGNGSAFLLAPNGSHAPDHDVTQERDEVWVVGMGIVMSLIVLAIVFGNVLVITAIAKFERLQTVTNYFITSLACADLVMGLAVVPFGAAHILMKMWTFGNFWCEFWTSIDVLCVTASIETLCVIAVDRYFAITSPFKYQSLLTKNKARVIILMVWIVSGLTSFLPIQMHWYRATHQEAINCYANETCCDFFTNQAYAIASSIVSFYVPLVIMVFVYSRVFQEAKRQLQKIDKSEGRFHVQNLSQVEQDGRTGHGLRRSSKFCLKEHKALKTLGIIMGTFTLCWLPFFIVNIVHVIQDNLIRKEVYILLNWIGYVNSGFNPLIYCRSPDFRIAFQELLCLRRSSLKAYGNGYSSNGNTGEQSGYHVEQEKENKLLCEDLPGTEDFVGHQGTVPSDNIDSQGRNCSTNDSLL
# Tyrosine-protein phosphatase non-receptor type 11, sequence (Q06124 whole entry): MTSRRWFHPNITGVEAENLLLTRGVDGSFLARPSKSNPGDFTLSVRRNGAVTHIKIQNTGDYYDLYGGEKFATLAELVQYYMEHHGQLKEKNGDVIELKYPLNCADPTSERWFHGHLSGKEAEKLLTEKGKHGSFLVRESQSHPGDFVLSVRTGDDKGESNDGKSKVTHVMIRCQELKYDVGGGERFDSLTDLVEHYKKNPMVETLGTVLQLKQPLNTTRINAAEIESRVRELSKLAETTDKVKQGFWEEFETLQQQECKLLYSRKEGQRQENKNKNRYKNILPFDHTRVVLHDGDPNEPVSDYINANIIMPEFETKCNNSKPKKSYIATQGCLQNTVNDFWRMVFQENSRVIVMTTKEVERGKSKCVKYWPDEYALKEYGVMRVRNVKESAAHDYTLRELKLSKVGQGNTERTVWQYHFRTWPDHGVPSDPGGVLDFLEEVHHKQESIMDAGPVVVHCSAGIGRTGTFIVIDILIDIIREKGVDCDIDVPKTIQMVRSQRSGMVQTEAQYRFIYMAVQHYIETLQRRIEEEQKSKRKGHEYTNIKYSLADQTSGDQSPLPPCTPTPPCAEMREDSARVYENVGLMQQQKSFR
# Tyrosine-protein phosphatase non-receptor type 5, sequence (P54829 whole entry): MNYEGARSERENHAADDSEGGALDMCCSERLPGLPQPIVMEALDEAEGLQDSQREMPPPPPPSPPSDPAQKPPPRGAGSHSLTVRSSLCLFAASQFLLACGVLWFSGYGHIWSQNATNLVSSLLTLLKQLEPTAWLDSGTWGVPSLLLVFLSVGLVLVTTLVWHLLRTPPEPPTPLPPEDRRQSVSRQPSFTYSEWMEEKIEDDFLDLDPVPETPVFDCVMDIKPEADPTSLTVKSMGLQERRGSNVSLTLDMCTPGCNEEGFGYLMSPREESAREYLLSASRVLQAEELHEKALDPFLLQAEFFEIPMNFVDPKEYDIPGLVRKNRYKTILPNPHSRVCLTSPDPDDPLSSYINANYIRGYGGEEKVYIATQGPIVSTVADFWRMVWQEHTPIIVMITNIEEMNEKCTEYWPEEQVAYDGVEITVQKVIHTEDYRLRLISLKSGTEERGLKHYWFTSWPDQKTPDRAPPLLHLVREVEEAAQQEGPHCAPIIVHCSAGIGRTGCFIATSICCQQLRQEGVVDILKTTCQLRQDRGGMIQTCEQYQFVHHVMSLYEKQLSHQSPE
# Dual specificity protein phosphatase 3, sequence (P51452 whole entry): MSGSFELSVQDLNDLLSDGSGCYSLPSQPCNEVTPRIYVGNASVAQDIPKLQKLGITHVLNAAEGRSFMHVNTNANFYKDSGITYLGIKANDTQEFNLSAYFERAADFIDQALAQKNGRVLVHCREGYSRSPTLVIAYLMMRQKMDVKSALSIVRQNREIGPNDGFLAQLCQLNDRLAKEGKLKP
# SWI/SNF-related matrix-associated actin-dependent regulator of chromatin subfamily A member 2, sequence (P51531 whole entry): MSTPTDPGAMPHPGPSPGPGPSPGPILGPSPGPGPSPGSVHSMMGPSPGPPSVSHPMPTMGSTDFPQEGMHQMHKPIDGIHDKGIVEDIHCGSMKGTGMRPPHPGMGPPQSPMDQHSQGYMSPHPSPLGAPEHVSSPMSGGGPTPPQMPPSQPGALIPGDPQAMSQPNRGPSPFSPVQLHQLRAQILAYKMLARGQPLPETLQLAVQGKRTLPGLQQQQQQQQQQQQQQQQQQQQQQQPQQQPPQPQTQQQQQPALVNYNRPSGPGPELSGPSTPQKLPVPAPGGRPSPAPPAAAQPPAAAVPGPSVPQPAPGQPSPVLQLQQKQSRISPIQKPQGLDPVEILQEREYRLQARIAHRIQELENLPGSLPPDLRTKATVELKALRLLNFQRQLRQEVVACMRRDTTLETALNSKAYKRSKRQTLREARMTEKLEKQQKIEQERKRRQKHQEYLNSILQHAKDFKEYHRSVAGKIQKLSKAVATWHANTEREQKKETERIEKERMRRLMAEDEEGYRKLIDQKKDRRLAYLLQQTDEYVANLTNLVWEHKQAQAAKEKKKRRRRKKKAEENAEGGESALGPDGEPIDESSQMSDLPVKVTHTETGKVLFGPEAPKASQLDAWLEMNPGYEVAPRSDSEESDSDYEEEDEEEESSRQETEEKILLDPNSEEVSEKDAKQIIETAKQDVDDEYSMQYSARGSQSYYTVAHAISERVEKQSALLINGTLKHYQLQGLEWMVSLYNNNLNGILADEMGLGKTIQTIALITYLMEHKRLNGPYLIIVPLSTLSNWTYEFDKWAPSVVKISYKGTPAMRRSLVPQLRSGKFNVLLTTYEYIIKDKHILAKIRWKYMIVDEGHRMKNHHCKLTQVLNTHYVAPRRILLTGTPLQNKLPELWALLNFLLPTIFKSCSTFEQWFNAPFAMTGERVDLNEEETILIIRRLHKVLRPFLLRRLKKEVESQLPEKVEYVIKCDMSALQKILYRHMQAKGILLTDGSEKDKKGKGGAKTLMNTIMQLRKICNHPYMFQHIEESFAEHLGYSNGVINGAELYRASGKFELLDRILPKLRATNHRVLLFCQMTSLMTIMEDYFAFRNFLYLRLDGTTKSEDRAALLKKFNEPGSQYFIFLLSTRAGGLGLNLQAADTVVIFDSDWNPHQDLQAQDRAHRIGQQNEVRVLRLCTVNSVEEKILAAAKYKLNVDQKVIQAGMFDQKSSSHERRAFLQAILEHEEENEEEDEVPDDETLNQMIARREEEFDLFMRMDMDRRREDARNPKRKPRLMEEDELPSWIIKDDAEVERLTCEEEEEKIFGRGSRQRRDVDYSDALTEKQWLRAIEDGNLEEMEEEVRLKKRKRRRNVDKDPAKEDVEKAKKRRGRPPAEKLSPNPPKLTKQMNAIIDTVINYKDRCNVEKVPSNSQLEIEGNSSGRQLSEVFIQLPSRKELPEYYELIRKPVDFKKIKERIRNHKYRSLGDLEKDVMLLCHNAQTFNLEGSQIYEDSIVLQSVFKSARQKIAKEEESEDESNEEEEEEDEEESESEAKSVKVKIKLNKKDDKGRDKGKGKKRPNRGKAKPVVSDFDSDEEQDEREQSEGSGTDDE
# Genome polyprotein, sequence (P29990 2492-3391 limits assumed): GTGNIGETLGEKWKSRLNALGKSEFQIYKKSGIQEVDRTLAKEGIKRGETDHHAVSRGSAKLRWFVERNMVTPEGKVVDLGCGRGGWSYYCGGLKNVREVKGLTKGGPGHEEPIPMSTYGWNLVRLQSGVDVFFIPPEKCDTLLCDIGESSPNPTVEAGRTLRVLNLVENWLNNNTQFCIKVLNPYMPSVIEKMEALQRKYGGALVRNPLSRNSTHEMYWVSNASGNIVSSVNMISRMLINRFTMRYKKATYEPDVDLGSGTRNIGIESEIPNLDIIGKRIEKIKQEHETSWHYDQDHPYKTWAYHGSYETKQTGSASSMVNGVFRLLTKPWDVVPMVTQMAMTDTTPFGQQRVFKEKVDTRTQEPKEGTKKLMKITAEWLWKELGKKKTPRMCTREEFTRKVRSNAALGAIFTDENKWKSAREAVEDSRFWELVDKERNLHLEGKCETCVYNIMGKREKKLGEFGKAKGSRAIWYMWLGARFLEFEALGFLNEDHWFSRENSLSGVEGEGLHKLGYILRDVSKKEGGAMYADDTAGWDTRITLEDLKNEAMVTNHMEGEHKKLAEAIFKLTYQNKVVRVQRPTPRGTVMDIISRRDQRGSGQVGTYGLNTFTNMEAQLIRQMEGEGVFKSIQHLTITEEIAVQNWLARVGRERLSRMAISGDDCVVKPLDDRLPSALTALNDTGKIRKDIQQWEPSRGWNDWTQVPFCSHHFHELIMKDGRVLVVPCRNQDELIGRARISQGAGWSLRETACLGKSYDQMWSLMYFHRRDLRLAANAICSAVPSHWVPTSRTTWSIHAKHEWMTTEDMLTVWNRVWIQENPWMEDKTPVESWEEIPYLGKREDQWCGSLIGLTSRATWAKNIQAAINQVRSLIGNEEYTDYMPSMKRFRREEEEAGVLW
compound,measurement,setting,value
COc1cc(/C=C2\SC(NS(=O)(=O)c3ccccc3)=NC2=O)c([N+](=O)[O-])cc1OC,IC50,Aminopeptidase N,25.5 µM (active)
same,EC50,[1],25.6 µM (active)
same,EC50,Streptokinase A,> 150 µM (not active)
same,EC50,Streptococcus,> 150 µM (not active)
same,IC50,[2],4.17 µM (active)
same,IC50,[3],8.91 µM (active)
same,IC50,Genome polyprotein,43.4 µM (active)
O=C1Cc2ccccc2C(=O)N1c1cccc(Cl)c1,EC50,[4],> 195 µM (not active)
same,IC50,[5],> 100 µM (inactive)
same,IC50,[6],6.08 µM (active)
same,AC50,Caspase-6,35.6 µM (active)
O=C(CSc1ccc(-c2ccccn2)nn1)c1ccc([N+](=O)[O-])cc1,AC50,[7],131 µM (active)
COc1ccc(NC(=S)N(CCCN2CCC(C)CC2)Cc2cccs2)cc1Cl,IC50,[8],6.76 µM (active)
same,IC50,[9],55.6 µM (inactive)
same,IC50,[10],4.18 µM (active)
CCOC(=O)N1CCN(C(=O)CN(C)S(=O)(=O)c2ccc(Cl)cc2)CC1,EC50,[11],0.987 µM (active)
same,EC50,[12],1.95 µM (active)
COc1cccc(-n2nnc3c(=O)n(Cc4ccc(Br)cc4)cnc32)c1,IC50,[13],24.7 µM (inactive)
Cc1ccc(SCC(=O)Nc2ccc(-c3nc4ccccc4[nH]3)cc2)cc1,EC50,[11],0.00682 µM (active)
same,EC50,[12],0.0116 µM (active)
O=C1c2ccccc2C(=O)c2c(NCCCN(CCO)CCO)cccc21,IC50,Aminopeptidase N,77.7 µM (active)
same,CC50,Vero,13.9 µM (active)
same,EC50,[14],> 10.1 µM (inactive)
same,EC50,[15],> 91.2 µM (inactive)
same,AC50,[16],0.977 µM (active)
COc1ccc2nc(NC(=O)CSc3nc4cccnc4n3C)sc2c1,EC50,Melanocortin receptor 4,> 89.2 µM (inactive)
Clc1ccc(Cl)c(-c2nc(-c3ccncc3)no2)c1,IC50,[8],6.55 µM (active)
same,IC50,[9],> 80 µM (inactive)
same,IC50,[10],25.4 µM (inactive)
COC(=O)N/N=C1/C/C(=N\NC(=O)OC)c2ccccc21,IC50,[5],0.557 µM (active)
same,IC50,[6],0.365 µM (active)
same,AC50,Caspase-6,4.22 µM (active)
